In patent US20240165274A1, “METHODS OF DETECTING SYSTEMIC AMYLOIDOSIS VIA BINDING TO MISFOLDED OR AGGREGATED PROTEIN” (Amydis, Inc., priority 2021, published 2024):

Legend:
[1] = biological target: T1, aggregated TTR (Homo sapiens, UniProt P02766); assay: Fluorescence spectra of Compound 1 with TTR aggregates; conditions: excitation 440 nm; for Fluorescence fold increase: Compound 1 4 μM, emission 565 nm, RFI over Compound 1 alone
Procedure: Several aggregated TTR samples were prepared using different conditions as described below. • Aggregate A was prepared by resuspending TTR in 50 mM glycine buffer at a pH of about 3.6 and further incubating the same for 24 hours at room temperature. • Aggregate B1 was prepared by resuspending TTR in water at a pH of about 7.4, and further incubating the same for 7 days with stirring (200 rpm) maintained at 37° C. • Aggregate B2 was prepared by resuspending TTR in water at a pH of about 7.4, and further incubating the same for 14 days with stirring (200 rpm) maintained at 37° C.
Compound 1 (4 μM) was prepared with or without Aggregate B1 in 1× phosphate-buffered saline (PBS). The absorption, fluorescence, and excitation spectra were taken for both samples. The excitation wavelength was optimized to be 440 nm. The emission spectra thus received were adjusted against a blank solvent control to obtain relative fluorescence intensity (RFI) as a function of wavelengths.
Further, fluorescence spectra were taken on mixtures of Compound I (4 μM) with Aggregate A, B1, or B2, respectively, each at the concentration of 5 μM, at the emission wavelength of 565 nm, when excited at 440 nm. The increases in RFI over Compound 1 alone were calculated and are illustrated in Table 1: […]

[2] = biological target: T1, aggregated TTR; assay: Binding affinity for Compound 1 with aggregated TTR (fluorescence titration, one site specific binding); conditions: 5 μM TTR, 4% DMSO/PBS pH 7.4; Compound 1 0 to 10 μM; RFI at λmax(em); FIG. 2
Procedure: A solution of DMSO/PBS (6 μL DMSO in 144 μL PBS, pH 7.4) was prepared as a blank control. Further, a 250 μM solution of Compound 1 in DMSO was prepared. The following samples were then prepared in triplicate while keeping a constant 5 μM TTR concentration in 4% DMSO/PBS:
Emission spectra were taken for each sample and adjusted against the blank over the range of 445-700 nm. RFI at λmax(em) was determined for each sample. RFI was then plotted against the increasing concentration of Compound 1 over the range of 0 to 10 μM using a one site specific binding algorithm. The binding affinity (Kd) was determined to be 0.3+/−0.1 μM. This is illustrated in FIG. 2.

[3] = system: TTR deposits in human tissues; assay: Staining of FFPE human tissue sections with vitreous amyloid, co-stained with TTR antibody; conditions: compound 60 μM, 30 minutes; adjacent sections stained with Congo red and H&E; present-tense example, binding 'contemplated'
Procedure: The following protocol was adopted for staining Formalin-Fixed Paraffin Embedded (FFPE) tissues: • 1. Deparaffinization and hydration of tissue sections: • Pre-heat @ 60° C. 1 hour • Place slides in holders and treat with the clearing agent xylene (paraffin solvent) and a series of graded ethanol (EtOH) as follows: • i. 100% xylene—5 min • ii. 100% xylene—5 min • iii. 50%/50% xylene/100% EtOH—3 min • iv. 100% EtOH—3 min • v. 95% EtOH—3 min • vi. 70% EtOH—3 min • vii. 50% EtOH—3 min • viii. Water—2×3 min. • 2. Antigen retrieval: incubate in 99% formic acid for 5 minutes. • 3. Wash with distilled water for 5 minutes. Repeat this step two times. • 4. Pre-heat 10 mM citrate buffer pH 6.0 to boiling. • 5. Place slides in staining chamber with heated citrate buffer for 20 minutes. • 6. Cool in water bath. Wash with distilled water for 5 minutes. Repeat this step two times. • 7. […]
Sections from tissues of vitreous amyloid with known TTR mutation (paraffin embedded tissue blocks) and an autopsy eyeball with vitreous amyloid (paraffin embedded organ) are respectively stained with hematoxylin and eosin (H&E) and Congo red to mark regions with amyloidosis. […] It is contemplated that Compound 1 binds to TTR deposits in human tissues and undergoes an increase in fluorescence emission in a manner similar to its increase in fluorescence in vitro in the presence of aggregated TTR as described in earlier examples.

Question: Which Fluorescence fold increase ([1]; Aggregate A 5 μM) does the source give for `COCCOCCOCCOC(=O)/C(C#N)=C/c1ccc2cc(N3CCCCC3)ccc2c1` [Compound 1] here?
Answer: 4.6 fold

Question: What about the Fluorescence fold increase ([1]; Aggregate B1 5 μM) of the same compound?
Answer: 2.3 fold

Question: What about the Fluorescence fold increase ([1]; Aggregate B2 5 μM) of the same compound?
Answer: 2.5 fold

Question: And the “increase of relative fluorescence intensity (RFI) in presence of aggregate” value ([1]; Compound 1 4 μM with vs without Aggregate B1 in 1× PBS, FIG. 1)?
Answer: about 3.2

Question: And the Kd [2]?
Answer: 300 nM

Question: And the “regions of hyperfluorescence versus areas of amyloidosis” value [3]?
Answer: correspond to areas of amyloidosis defined using Congo Red and H&E stains
